Test system: patients with relapsed/refractory immune thrombocytopenia
Assay: Phase 1/2 study (NCT03395210) Part A, safety;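 also: adverse events graded by NCI CTCAE version 4.0, with worsening of pre-existing conditions counted as adverse events, analysed in the Safety Population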
[1] = patients who initiated at all doses

CC(C)(C=C(C#N)C(=O)N1CCC[C@@H](n2nc(-c3ccc(Oc4ccccc4)cc3F)c3c(N)ncnc32)C1)N1CCN(C2COC2)CC1 [rilzabrutinib, (R)-2-[3-[4-amino-3-(2-fluoro-4-phenoxy-phenyl)pyrazolo[3,4-d]pyrimidin-1-yl]piperidine-1-carbonyl]-4-methyl-4-[4-(oxetan-3-yl)piperazin-1-yl]pent-2-enenitrile]
Fatigue, TEAEs Due to Any Cause, Grade 2 (Safety Population, N = 60): 2 (3) number of patients (percent)
Fatigue, Treatment-Related TEAEs, Any grade (Safety Population, N = 60): 6 (10) number of patients (percent)
Fatigue, Treatment-Related TEAEs, Grade 1 (Safety Population, N = 60): 5 (8) number of patients (percent)
Fatigue, Treatment-Related TEAEs, Grade 2 (Safety Population, N = 60): 1 (2) number of patients (percent)
Frequent bowel movements, TEAEs Due to Any Cause, Any grade (Safety Population, N = 60): 1 (2) number of patients (percent)
Frequent bowel movements, TEAEs Due to Any Cause, Grade 2 (Safety Population, N = 60): 1 (2) number of patients (percent)
Frequent bowel movements, Treatment-Related TEAEs, Any grade (Safety Population, N = 60): 1 (2) number of patients (percent)
Frequent bowel movements, Treatment-Related TEAEs, Grade 2 (Safety Population, N = 60): 1 (2) number of patients (percent)
Gingival bleeding, TEAEs Due to Any Cause, Any grade (Safety Population, N = 60): 3 (5) number of patients (percent)
Gingival bleeding, TEAEs Due to Any Cause, Grade 1 (Safety Population, N = 60): 3 (5) number of patients (percent)
Headache, TEAEs Due to Any Cause, Any grade (Safety Population, N = 60): 7 (12) number of patients (percent)
Headache, TEAEs Due to Any Cause, Grade 1 (Safety Population, N = 60): 7 (12) number of patients (percent)
Headache, Treatment-Related TEAEs, Any grade (Safety Population, N = 60): 2 (3) number of patients (percent)
Headache, Treatment-Related TEAEs, Grade 1 (Safety Population, N = 60): 2 (3) number of patients (percent)
Heavy menstrual bleeding, TEAEs Due to Any Cause, Any grade (Safety Population, N = 60): 2 (3) number of patients (percent)
Heavy menstrual bleeding, TEAEs Due to Any Cause, Grade 1 (Safety Population, N = 60): 1 (2) number of patients (percent)
Heavy menstrual bleeding, TEAEs Due to Any Cause, Grade 2 (Safety Population, N = 60): 1 (2) number of patients (percent)
Hot flush, TEAEs Due to Any Cause, Any grade (Safety Population, N = 60): 1 (2) number of patients (percent)
Hot flush, TEAEs Due to Any Cause, Grade 2 (Safety Population, N = 60): 1 (2) number of patients (percent)
Hot flush, Treatment-Related TEAEs, Any grade (Safety Population, N = 60): 1 (2) number of patients (percent)
Hot flush, Treatment-Related TEAEs, Grade 2 (Safety Population, N = 60): 1 (2) number of patients (percent)
Hypoesthesia, TEAEs Due to Any Cause, Any grade (Safety Population, N = 60): 1 (2) number of patients (percent)
Hypoesthesia, TEAEs Due to Any Cause, Grade 2 (Safety Population, N = 60): 1 (2) number of patients (percent)
Hypoesthesia, Treatment-Related TEAEs, Any grade (Safety Population, N = 60): 1 (2) number of patients (percent)
Hypoesthesia, Treatment-Related TEAEs, Grade 2 (Safety Population, N = 60): 1 (2) number of patients (percent)
Hypokalemia, TEAEs Due to Any Cause, Any grade (Safety Population, N = 60): 1 (2) number of patients (percent)
Hypokalemia, TEAEs Due to Any Cause, Grade 1 (Safety Population, N = 60): 1 (2) number of patients (percent)
Hypokalemia, Treatment-Related TEAEs, Any grade (Safety Population, N = 60): 1 (2) number of patients (percent)
Hypokalemia, Treatment-Related TEAEs, Grade 1 (Safety Population, N = 60): 1 (2) number of patients (percent)
Hypophosphatemia, TEAEs Due to Any Cause, Any grade (Safety Population, N = 60): 2 (3) number of patients (percent)
Hypophosphatemia, TEAEs Due to Any Cause, Grade 2 (Safety Population, N = 60): 2 (3) number of patients (percent)
Increased white blood cell count, TEAEs Due to Any Cause, Any grade (Safety Population, N = 60): 1 (2) number of patients (percent)
Increased white blood cell count, TEAEs Due to Any Cause, Grade 2 (Safety Population, N = 60): 1 (2) number of patients (percent)
Increased white blood cell count, Treatment-Related TEAEs, Any grade (Safety Population, N = 60): 1 (2) number of patients (percent)
Increased white blood cell count, Treatment-Related TEAEs, Grade 2 (Safety Population, N = 60): 1 (2) number of patients (percent)
Maculo-papular rash, TEAEs Due to Any Cause, Any grade (Safety Population, N = 60): 1 (2) number of patients (percent)
Maculo-papular rash, TEAEs Due to Any Cause, Grade 1 (Safety Population, N = 60): 1 (2) number of patients (percent)
Maculo-papular rash, Treatment-Related TEAEs, Any grade (Safety Population, N = 60): 1 (2) number of patients (percent)
Maculo-papular rash, Treatment-Related TEAEs, Grade 1 (Safety Population, N = 60): 1 (2) number of patients (percent)
Malaise, TEAEs Due to Any Cause, Any grade (Safety Population, N = 60): 1 (2) number of patients (percent)
Malaise, TEAEs Due to Any Cause, Grade 1 (Safety Population, N = 60): 1 (2) number of patients (percent)
Malaise, Treatment-Related TEAEs, Any grade (Safety Population, N = 60): 1 (2) number of patients (percent)
Malaise, Treatment-Related TEAEs, Grade 1 (Safety Population, N = 60): 1 (2) number of patients (percent)
Micturition urgency, TEAEs Due to Any Cause, Any grade (Safety Population, N = 60): 1 (2) number of patients (percent)
Micturition urgency, TEAEs Due to Any Cause, Grade 1 (Safety Population, N = 60): 1 (2) number of patients (percent)
Micturition urgency, Treatment-Related TEAEs, Any grade (Safety Population, N = 60): 1 (2) number of patients (percent)
Micturition urgency, Treatment-Related TEAEs, Grade 1 (Safety Population, N = 60): 1 (2) number of patients (percent)
Muscle spasms, TEAEs Due to Any Cause, Any grade (Safety Population, N = 60): 2 (3) number of patients (percent)
Muscle spasms, TEAEs Due to Any Cause, Grade 1 (Safety Population, N = 60): 2 (3) number of patients (percent)
Muscle spasms, Treatment-Related TEAEs, Any grade (Safety Population, N = 60): 1 (2) number of patients (percent)
Muscle spasms, Treatment-Related TEAEs, Grade 1 (Safety Population, N = 60): 1 (2) number of patients (percent)
Myalgia, TEAEs Due to Any Cause, Any grade (Safety Population, N = 60): 1 (2) number of patients (percent)
Myalgia, TEAEs Due to Any Cause, Grade 1 (Safety Population, N = 60): 1 (2) number of patients (percent)
Myalgia, Treatment-Related TEAEs, Any grade (Safety Population, N = 60): 1 (2) number of patients (percent)
Myalgia, Treatment-Related TEAEs, Grade 1 (Safety Population, N = 60): 1 (2) number of patients (percent)
Nasal congestion, TEAEs Due to Any Cause, Any grade (Safety Population, N = 60): 2 (3) number of patients (percent)
Nasal congestion, TEAEs Due to Any Cause, Grade 1 (Safety Population, N = 60): 1 (2) number of patients (percent)
Nasal congestion, TEAEs Due to Any Cause, Grade 2 (Safety Population, N = 60): 1 (2) number of patients (percent)
Nasopharyngitis, TEAEs Due to Any Cause, Any grade (Safety Population, N = 60): 3 (5) number of patients (percent)
Nasopharyngitis, TEAEs Due to Any Cause, Grade 1 (Safety Population, N = 60): 2 (3) number of patients (percent)
Nasopharyngitis, TEAEs Due to Any Cause, Grade 2 (Safety Population, N = 60): 1 (2) number of patients (percent)
Nausea, TEAEs Due to Any Cause, Any grade (Safety Population, N = 60): 21 (35) number of patients (percent)
Nausea, TEAEs Due to Any Cause, Grade 1 (Safety Population, N = 60): 18 (30) number of patients (percent)
Nausea, TEAEs Due to Any Cause, Grade 2 (Safety Population, N = 60): 3 (5) number of patients (percent)
Nausea, Treatment-Related TEAEs, Any grade (Safety Population, N = 60): 18 (30) number of patients (percent)
Nausea, Treatment-Related TEAEs, Grade 1 (Safety Population, N = 60): 16 (27) number of patients (percent)
Nausea, Treatment-Related TEAEs, Grade 2 (Safety Population, N = 60): 2 (3) number of patients (percent)
Peripheral swelling, TEAEs Due to Any Cause, Any grade (Safety Population, N = 60): 3 (5) number of patients (percent)
Peripheral swelling, TEAEs Due to Any Cause, Grade 1 (Safety Population, N = 60): 3 (5) number of patients (percent)
Petechiae, TEAEs Due to Any Cause, Any grade (Safety Population, N = 60): 4 (7) number of patients (percent)
Petechiae, TEAEs Due to Any Cause, Grade 1 (Safety Population, N = 60): 4 (7) number of patients (percent)
Pruritus, TEAEs Due to Any Cause, Any grade (Safety Population, N = 60): 2 (3) number of patients (percent)
Pruritus, TEAEs Due to Any Cause, Grade 1 (Safety Population, N = 60): 1 (2) number of patients (percent)
Pruritus, TEAEs Due to Any Cause, Grade 2 (Safety Population, N = 60): 1 (2) number of patients (percent)
Pruritus, Treatment-Related TEAEs, Any grade (Safety Population, N = 60): 2 (3) number of patients (percent)
Pruritus, Treatment-Related TEAEs, Grade 1 (Safety Population, N = 60): 1 (2) number of patients (percent)
Pruritus, Treatment-Related TEAEs, Grade 2 (Safety Population, N = 60): 1 (2) number of patients (percent)
Purpura, TEAEs Due to Any Cause, Any grade (Safety Population, N = 60): 2 (3) number of patients (percent)
Purpura, TEAEs Due to Any Cause, Grade 1 (Safety Population, N = 60): 2 (3) number of patients (percent)
Rash, TEAEs Due to Any Cause, Any grade (Safety Population, N = 60): 3 (5) number of patients (percent)
Rash, TEAEs Due to Any Cause, Grade 1 (Safety Population, N = 60): 1 (2) number of patients (percent)
Rash, TEAEs Due to Any Cause, Grade 2 (Safety Population, N = 60): 2 (3) number of patients (percent)
Rash, Treatment-Related TEAEs, Any grade (Safety Population, N = 60): 1 (2) number of patients (percent)
Rash, Treatment-Related TEAEs, Grade 1 (Safety Population, N = 60): 1 (2) number of patients (percent)
Thrombocytopenia, TEAEs Due to Any Cause, Any grade (Safety Population, N = 60): 2 (3) number of patients (percent)
Thrombocytopenia, TEAEs Due to Any Cause, Grade 3/4 (Safety Population, N = 60): 2 (3) number of patients (percent)
Upper abdominal pain, TEAEs Due to Any Cause, Any grade (Safety Population, N = 60): 3 (5) number of patients (percent)
Upper abdominal pain, TEAEs Due to Any Cause, Grade 1 (Safety Population, N = 60): 2 (3) number of patients (percent)
Upper abdominal pain, TEAEs Due to Any Cause, Grade 2 (Safety Population, N = 60): 1 (2) number of patients (percent)
Upper abdominal pain, Treatment-Related TEAEs, Any grade (Safety Population, N = 60): 2 (3) number of patients (percent)
Upper abdominal pain, Treatment-Related TEAEs, Grade 1 (Safety Population, N = 60): 1 (2) number of patients (percent)
Upper abdominal pain, Treatment-Related TEAEs, Grade 2 (Safety Population, N = 60): 1 (2) number of patients (percent)
Upper respiratory tract infection, TEAEs Due to Any Cause, Any grade (Safety Population, N = 60): 3 (5) number of patients (percent)
Upper respiratory tract infection, TEAEs Due to Any Cause, Grade 1 (Safety Population, N = 60): 2 (3) number of patients (percent)
Upper respiratory tract infection, TEAEs Due to Any Cause, Grade 2 (Safety Population, N = 60): 1 (2) number of patients (percent)
Urinary tract infection, TEAEs Due to Any Cause, Any grade (Safety Population, N = 60): 2 (3) number of patients (percent)
Urinary tract infection, TEAEs Due to Any Cause, Grade 1 (Safety Population, N = 60): 1 (2) number of patients (percent)
Urinary tract infection, TEAEs Due to Any Cause, Grade 2 (Safety Population, N = 60): 1 (2) number of patients (percent)
Vomiting, TEAEs Due to Any Cause, Any grade (Safety Population, N = 60): 4 (7) number of patients (percent)
Vomiting, TEAEs Due to Any Cause, Grade 1 (Safety Population, N = 60): 3 (5) number of patients (percent)
Vomiting, TEAEs Due to Any Cause, Grade 2 (Safety Population, N = 60): 1 (2) number of patients (percent)
Vomiting, Treatment-Related TEAEs, Any grade (Safety Population, N = 60): 3 (5) number of patients (percent)
Vomiting, Treatment-Related TEAEs, Grade 1 (Safety Population, N = 60): 2 (3) number of patients (percent)
Vomiting, Treatment-Related TEAEs, Grade 2 (Safety Population, N = 60): 1 (2) number of patients (percent)
TEAE resulting in study drug discontinuation: administrative and site conditions (in vivo): 1 (2%) patients (%)
TEAE resulting in study drug discontinuation: gastrointestinal (GI) disorders (in vivo): 4 (7%) patients (%)
TEAE resulting in study drug discontinuation: lymphatic system disorders (in vivo): 2 (4%) patients (%)
treatment-related any-grade TEAE: diarrhea [1]: 32%
treatment-related any-grade TEAE: fatigue [1]: 10%
treatment-related any-grade TEAE: nausea [1]: 30%
patient death (unrelated to treatment, 400 mg bid discontinued on day 8, pre-existing Evans syndrome): 1 patient
